Data from patent publication US8901129B2, “Methods of facilitating neural cell survival using GDNF family ligand (GFL) mimetics or RET signaling pathway activators” (GeneCode AS, priority 2009, dated 2014).

Experiments:
6-OHDA-treated rats = test: Side effects / toxic effects after intrastriatal injection in 6-OHDA-treated rats; format: in vivo; conditions: injected intrastriatally
Protocol: GDNF mimetics compounds, GDNF or vehicle is administered to the striatum at 3 weeks after the exposure to the neurotoxin 6-OHDA. The selective damage to dopaminergic neurons in the SNc, as well as striatal levels of dopamine and its metabolites are evaluated 12 weeks after the injection of 6-OHDA with tyrosine hydroxylase (TH) immunohistochemistry and HPLC, respectively. In addition, the behavioral impairment of rats is evaluated by forelimb asymmetry test (cylinder test), amphetamine induced rotation asymmetry test and Y-maze test for stereotypic spontaneous rotation deficits.
On day 21, rats are re-anesthetized with 5% isoflurane (in 70% N2O and 30% O2; flow 300 ml/min) and placed in a stereotactic frame. During the operation concentration of anesthetic is reduced to 1-1.5%. The rectal temperature is maintained at 37.0±1.0° C. with a homeothermic blanket system. The right brain hemisphere is exposed through a small craniectomy to the skull. A stereotaxic injection of the test compound, GDNF or vehicle is made into the right striatum. Each dosing solution is infused at a speed of 1 μl/min and is equally distributed between 4 sites at the following coordinates: AP+1.0, ML+2.8, DV−6.0, −5.5, −5.0 and −4.4 mm. The cannula is left in place for another 5 min before being withdrawn. The hole in the skull is subsequently filled with repair material and the skin is closed and disinfected. The rats are allowed to recover from anesthesia and are carefully monitored for possible post surgical complications. The animals are returned to the home cages with ad libitum access to food and water.
Animals are monitored daily by laboratory personnel. […] Definitions of acceptable endpoints include: no spontaneous movements and inability to drink or eat in 24-h observation period, massive bleeding, spontaneous inflammation, missing anatomy, swelling or tumors larger than 20 mm, and inability to right itself in 30 sec period.

GFRα1/RET = biological target: T1, GFRα1/RET (Homo sapiens, UniProt P07949+P56159); test: RET phosphorylation by BT compounds, IP and Western blotting (FIG. 6A); format: cell-based; conditions: 100 μM, 15 min; MG87 RET fibroblasts transfected with GFRα1
T1 construct: Full-length human GFRα1 cDNA (Sidorova et al., unpublished) subcloned in pcDNA6; expressed in transfected cells; host or cells: MG87RET murine fibroblasts transiently transfected with GFRα1
Protocol: (§1) MG87RET cells were plated on 35 mm tissue culture dishes the day before the experiment. Cells were transfected with GFRα1, GFRα3 or with an vector encoding for GFP. On the day of the experiment cells were starved for 4 hours in serum-free DMEM and stimulated with the investigated compounds (structures shown in the description of FIG. 6, above) at 100 μM concentration or with 100 ng/ml of GDNF or ARTN (positive control) for 15 min. Then cells were washed once with ice-cold PBS containing 1 mM Na3VO4 and lysed on ice in 1 ml per well of RIPA-modified buffer (50 mM Tris-HCl, pH 7.4, 150 mM NaCl, 1 mM EDTA, 1% NP-40, 1% TX-100, 10% glycerol, EDTA-free protease inhibitor cocktail (Roche), 1 mM Na3VO4, 2.5 mg/ml of sodium deoxycholate, 1 mM PMSF. Ret was immunoprecipitated by anti-RET C-20 antibodies (Santa-Cruz Biotechnology, Inc.). Precipitated proteins were resolved on 7.5% SDS-PAGE and then transferred onto a nitrocellulose membrane. Membrane was blocked for 15 min at room temperature by 10% nonfat dry milk in TBS-T and probed with anti-phosphotyrosine antibodies (clone 4G10, Upstate Biotechnology) diluted 1:1000 in TBS-T containing 3% nonfat dry milk for 2 hours at room temperature. The membranes were washed 3 times for 5 min in TBS-T and incubated in the 1:3000 solution of secondary anti-mouse antibodies conjugated with HRP (DAKO) diluted in TBS-T containing 3% nonfat dry milk for 45 min at room temperature. Membranes were washed with TBS-T for 5×10 min. Stained bands were visualized with ECL reagent (Pierce) using LAS3000 imaging program. To confirm equal loading of the proteins, membranes were probed with anti-RET C-20 antibodies (1:500, Santa-Cruz Biotechnology, inc.) after stripping. We used secondary anti-goat antibodies conjugated with HRP (1:1500, DAKO) to detect C-20.

[1] = tested on: GFRα1/RET-expressing cells; test: Reporter-gene luciferase activity assay, dose-response (FIG. 5); format: cell-based; conditions: 1-50 μM, 24 h
Protocol: Generation of stable cell lines. MG87RET murine fibroblast were plated on […] dishes and transfected with 4 μg of G4-Luc, Gal4-Elk (Baloh et al., 2000) and GFRα1 expressing plasmid (“αLUC” cells) or empty vector (“NOα” cells) containing neomycin-resistance gene in ratio 4:1:1 using Lipofectamine 2000 (Invitrogen) for DNA delivery as described by manufacturer. The following day, cells were trypsinized and plated in low density on 10-cm tissue culture dishes. Stable transformants were selected in the presence of 500-750 μg/ml geneticin (Invitrogen). Established cell lines were maintained in DMEM, 10% fetal bovine serum (FBS), 100 μg/ml Normocin (Invivogene), 2 μg/ml of puromycin, 500 μg/ml of geneticin, 15 mM HEPES, pH 7.2. Pathdetect Elk-1 system and human GFRα1-expressing plasmid (“Strat-Luc” cells) or empty vector (control cell line “NOStratis”) cells were selected and maintained in the DMEM, 10% FBS, 100 μg/ml Normocin (Invivogene), 2 μg/ml of puromycin, 500 μg/ml of G418, 2 μg/ml of blasticidin S, 15 mM HEPES, pH 7.2.
Cells were plated on 96-well plates (or 384-well) in cell density 20 000 (or 5 000 for 384-well format) cells per well in DMEM, 10% FBS, 100 μg/ml Normocin, 2 μg/ml puromycin, 500 μg/ml of G418, 15 mM HEPES, pH 7.2 one day before assay. The following day, the compounds were added to a final concentration of 1-50 μM. Structures of the compounds are shown in the description of FIG. 5, above. Cells were allowed to produce luciferase for 24 h, then lysed in 20 μl of 1×Cell culture lysis reagent (Promega) and freeze-thawed once to ensure complete lysis. Then 5 μl of the lysate was mixed (on ice) with 20 μl of luciferase assay substrate (Promega) in a well of black Isoplate (PerkinElmer). Luminescence was counted on MicroBeta 2 counter (PerkinElmer) twice. Data are presented as fold induction, where the corresponding concentration of DMSO was used as a reference.

GFRα3/RET = biological target: T2, GFRα3/RET (Homo sapiens, UniProt O60609+P07949); test: RET phosphorylation by BT compounds, IP and Western blotting (FIG. 6B); format: cell-based; conditions: 100 μM, 15 min; MG87 RET fibroblasts transfected with GFRα3
T2 construct: Full-length human GFRα3 cDNA (Wang et al., 2006); expressed in transfected cells; host or cells: MG87RET murine fibroblasts transiently transfected with GFRα3
Protocol: as §1

T2 sequence (O60609 32-374 limits assumed): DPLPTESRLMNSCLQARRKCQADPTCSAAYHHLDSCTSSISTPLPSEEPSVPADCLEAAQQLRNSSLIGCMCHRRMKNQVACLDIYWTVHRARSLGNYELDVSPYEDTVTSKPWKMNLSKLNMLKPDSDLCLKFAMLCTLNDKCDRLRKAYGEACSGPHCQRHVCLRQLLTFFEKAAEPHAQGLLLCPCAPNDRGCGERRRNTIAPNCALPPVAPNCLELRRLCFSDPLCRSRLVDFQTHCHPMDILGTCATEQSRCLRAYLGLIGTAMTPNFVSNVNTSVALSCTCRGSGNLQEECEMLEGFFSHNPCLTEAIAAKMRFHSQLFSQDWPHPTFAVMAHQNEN
T2 sequence (P07949 29-1114): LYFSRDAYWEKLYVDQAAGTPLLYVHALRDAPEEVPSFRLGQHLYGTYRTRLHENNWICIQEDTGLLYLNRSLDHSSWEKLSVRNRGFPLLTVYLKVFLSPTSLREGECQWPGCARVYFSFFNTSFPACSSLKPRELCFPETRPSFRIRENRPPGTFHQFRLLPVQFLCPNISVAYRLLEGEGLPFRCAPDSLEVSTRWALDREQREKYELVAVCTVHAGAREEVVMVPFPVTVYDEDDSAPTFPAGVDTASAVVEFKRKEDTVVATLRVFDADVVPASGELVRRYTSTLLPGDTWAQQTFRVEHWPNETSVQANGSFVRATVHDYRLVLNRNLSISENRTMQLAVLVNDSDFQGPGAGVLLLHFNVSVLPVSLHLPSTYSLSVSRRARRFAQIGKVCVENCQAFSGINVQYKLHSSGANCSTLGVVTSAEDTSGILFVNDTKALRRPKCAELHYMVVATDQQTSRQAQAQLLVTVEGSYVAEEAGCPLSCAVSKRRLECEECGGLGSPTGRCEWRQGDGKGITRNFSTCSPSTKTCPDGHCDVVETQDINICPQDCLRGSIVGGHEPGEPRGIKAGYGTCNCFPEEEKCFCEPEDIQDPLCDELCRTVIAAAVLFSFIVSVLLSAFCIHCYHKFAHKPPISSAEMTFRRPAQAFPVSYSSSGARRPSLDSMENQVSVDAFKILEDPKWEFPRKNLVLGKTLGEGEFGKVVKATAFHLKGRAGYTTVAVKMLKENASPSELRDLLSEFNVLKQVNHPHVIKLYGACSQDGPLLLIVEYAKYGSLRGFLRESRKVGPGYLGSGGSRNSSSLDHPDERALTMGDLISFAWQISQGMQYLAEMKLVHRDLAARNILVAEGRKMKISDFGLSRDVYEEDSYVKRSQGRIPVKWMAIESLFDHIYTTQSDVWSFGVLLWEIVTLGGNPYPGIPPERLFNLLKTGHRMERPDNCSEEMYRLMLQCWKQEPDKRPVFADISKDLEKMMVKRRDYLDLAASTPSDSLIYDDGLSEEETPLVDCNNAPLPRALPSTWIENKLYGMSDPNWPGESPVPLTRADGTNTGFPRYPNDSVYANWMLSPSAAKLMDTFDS
T1 sequence (P56159 25-429 limits assumed, species assumed): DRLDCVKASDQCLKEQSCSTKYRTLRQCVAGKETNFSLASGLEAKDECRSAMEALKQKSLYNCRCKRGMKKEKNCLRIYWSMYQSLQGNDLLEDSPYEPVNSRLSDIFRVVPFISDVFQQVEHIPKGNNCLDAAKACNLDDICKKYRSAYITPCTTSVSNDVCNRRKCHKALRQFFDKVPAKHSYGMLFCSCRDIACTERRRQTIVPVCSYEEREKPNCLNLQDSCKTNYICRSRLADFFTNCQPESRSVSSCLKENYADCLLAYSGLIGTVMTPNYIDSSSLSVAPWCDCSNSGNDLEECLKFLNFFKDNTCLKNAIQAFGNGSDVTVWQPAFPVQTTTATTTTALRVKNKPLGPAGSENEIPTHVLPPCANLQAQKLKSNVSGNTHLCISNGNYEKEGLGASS
T1 sequence (P07949 29-1114, species assumed): as the sequence (P07949 29-1114) above

| Compound | toxic effects in behavioral assays (6-OHDA-treated rats) | RET phosphorylation via GFRα1 (GFRα1/RET) | induction of luciferase expression [1] | RET phosphorylation via GFRα3 (GFRα3/RET) |
| --- | --- | --- | --- | --- |
| COc1ccc(S(=O)(=O)N2CCc3ccccc3C2)cc1N1CCN(C(=O)c2cc(F)ccc2C(F)(F)F)CC1 [BT16] | did not cause toxic effects | strongly activated RET | in a dose-dependent manner induce luciferase expression | likely the weaker GFRα3/RET agonists |
| COc1cc2c(cc1OC)CN(S(=O)(=O)c1ccc(OC)c(N3CCN(C(=O)c4cc(F)ccc4C(F)(F)F)CC3)c1)CC2 [BT18] | did not cause toxic effects | likely the weaker GFRα1/RET agonists | active | likely the weaker GFRα3/RET agonists |
| CCN(CC)S(=O)(=O)c1ccc(OC)c(N2CCN(C(=O)c3cc(F)ccc3C(F)(F)F)CC2)c1 [BT13] | did not cause toxic effects | strongly activated RET | in a dose-dependent manner induce luciferase expression | strongly activated RET |
